From ChEMBL document CHEMBL5058647, “Data for DCP probe JNJ-9350” (2022)

How the values were obtained:
[1] = molecular target: T1, Kappa-type opioid receptor (Homo sapiens, UniProt P41145); test: GPCRScan assay: inhibition of KOR; parameters: radioligand conc. used [nm] 0.6 – 1.2, parental cells stable HEK
[2] = GPCRScan assay: inhibition of GABA/PBR; parameters: species or system Rattus norvegicus; radioligand conc. used [nm] 0.3 – 2.0, parental cells brain tissue
[3] = molecular target: Peroxisomal N(1)-acetyl-spermine/spermidine oxidase (Homo sapiens, UniProt Q6QHF9); test: HyPerBlu POAX enzymatic assay
[4] = molecular target: 5-hydroxytryptamine receptor 1A (Homo sapiens) (UniProt P08908); conditions: Compound concentration 10.0 uM
[5] = molecular target: 5-hydroxytryptamine receptor 1B (Homo sapiens, UniProt P28222); conditions: Compound concentration 10.0 uM
[6] = molecular target: 5-hydroxytryptamine receptor 2A (Homo sapiens) (UniProt P28223); conditions: Compound concentration 10.0 uM
[7] = molecular target: 5-hydroxytryptamine receptor 2B (Homo sapiens, UniProt P41595); conditions: Compound concentration 10.0 uM
[8] = molecular target: 5-hydroxytryptamine receptor 2C (Homo sapiens) (UniProt P28335); conditions: Compound concentration 10.0 uM
[9] = molecular target: 5-hydroxytryptamine receptor 3A (Homo sapiens) (UniProt P46098); conditions: Compound concentration 10.0 uM
[10] = molecular target: 5-hydroxytryptamine receptor 5A (Homo sapiens) (UniProt P47898); conditions: Compound concentration 10.0 uM
[11] = molecular target: 5-hydroxytryptamine receptor 7 (Homo sapiens) (UniProt P34969); conditions: Compound concentration 10.0 uM
[12] = molecular target: D(1A) dopamine receptor (Homo sapiens) (UniProt P21728); conditions: Compound concentration 10.0 uM
[13] = molecular target: D(2) dopamine receptor (Homo sapiens) (UniProt P14416); conditions: Compound concentration 10.0 uM
[14] = molecular target: D(3) dopamine receptor (Homo sapiens, UniProt P35462); conditions: Compound concentration 10.0 uM
[15] = molecular target: D(4) dopamine receptor (Homo sapiens) (UniProt P21917); conditions: Compound concentration 10.0 uM
[16] = molecular target: D(1B) dopamine receptor (Homo sapiens) (UniProt P21918); conditions: Compound concentration 10.0 uM
[17] = molecular target: Sodium-dependent serotonin transporter (Homo sapiens) (UniProt P31645); conditions: Compound concentration 10.0 uM
[18] = molecular target: Sodium-dependent noradrenaline transporter (Homo sapiens) (UniProt P23975); conditions: Compound concentration 10.0 uM
[19] = molecular target: Sodium-dependent dopamine transporter (Homo sapiens, UniProt Q01959); conditions: Compound concentration 10.0 uM
[20] = molecular target: Mu-type opioid receptor (Homo sapiens) (UniProt P35372); conditions: Compound concentration 10.0 uM
[21] = molecular target: Delta-type opioid receptor (Homo sapiens) (UniProt P41143); conditions: Compound concentration 10.0 uM
[22] = molecular target: T1, Kappa-type opioid receptor; conditions: Compound concentration 10.0 uM
[23] = molecular target: Histamine H1 receptor (Homo sapiens) (UniProt P35367); conditions: Compound concentration 10.0 uM
[24] = molecular target: Histamine H2 receptor (Homo sapiens) (UniProt P25021); conditions: Compound concentration 10.0 uM
[25] = molecular target: Histamine H3 receptor (Homo sapiens) (UniProt Q9Y5N1); conditions: Compound concentration 10.0 uM
[26] = molecular target: Histamine H4 receptor (Homo sapiens) (UniProt Q9H3N8); conditions: Compound concentration 10.0 uM
[27] = molecular target: Alpha-1A adrenergic receptor (Homo sapiens) (UniProt P35348); conditions: Compound concentration 10.0 uM
[28] = molecular target: Alpha-1B adrenergic receptor (Homo sapiens) (UniProt P35368); conditions: Compound concentration 10.0 uM
[29] = molecular target: Alpha-2A adrenergic receptor (Homo sapiens) (UniProt P08913); conditions: Compound concentration 10.0 uM
[30] = molecular target: Alpha-2B adrenergic receptor (Homo sapiens) (UniProt P18089); conditions: Compound concentration 10.0 uM
[31] = molecular target: Alpha-2C adrenergic receptor (Homo sapiens) (UniProt P18825); conditions: Compound concentration 10.0 uM
[32] = molecular target: Beta-1 adrenergic receptor (Homo sapiens) (UniProt P08588); conditions: Compound concentration 10.0 uM
[33] = molecular target: Beta-2 adrenergic receptor (Homo sapiens) (UniProt P07550); conditions: Compound concentration 10.0 uM
[34] = molecular target: Muscarinic acetylcholine receptor M2 (Homo sapiens) (UniProt P08172); conditions: Compound concentration 10.0 uM
[35] = molecular target: Muscarinic acetylcholine receptor M3 (Homo sapiens) (UniProt P20309); conditions: Compound concentration 10.0 uM
[36] = molecular target: T2, Muscarinic acetylcholine receptor M4 (Homo sapiens) (UniProt P08173); conditions: Compound concentration 10.0 uM
T2 sequence (whole entry): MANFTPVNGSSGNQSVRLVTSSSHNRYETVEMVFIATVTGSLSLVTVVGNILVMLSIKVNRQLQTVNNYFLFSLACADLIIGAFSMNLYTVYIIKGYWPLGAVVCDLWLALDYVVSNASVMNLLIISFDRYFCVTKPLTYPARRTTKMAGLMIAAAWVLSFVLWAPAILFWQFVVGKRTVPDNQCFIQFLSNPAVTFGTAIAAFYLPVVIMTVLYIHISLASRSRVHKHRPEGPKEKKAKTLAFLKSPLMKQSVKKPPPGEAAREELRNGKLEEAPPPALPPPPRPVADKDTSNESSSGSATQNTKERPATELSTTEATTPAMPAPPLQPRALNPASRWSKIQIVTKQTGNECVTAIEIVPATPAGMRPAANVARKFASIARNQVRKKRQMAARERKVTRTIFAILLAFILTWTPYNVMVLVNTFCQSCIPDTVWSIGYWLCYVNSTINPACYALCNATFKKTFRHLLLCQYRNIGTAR

[37] = molecular target: Muscarinic acetylcholine receptor M5 (Homo sapiens) (UniProt P08912); conditions: Compound concentration 10.0 uM
[38] = molecular target: Beta-3 adrenergic receptor (Homo sapiens) (UniProt P13945); conditions: Compound concentration 10.0 uM
[39] = species on record: Rattus norvegicus; conditions: Compound concentration 10.0 uM
[40] = molecular target: Alpha-1D adrenergic receptor (Homo sapiens) (UniProt P25100); conditions: Compound concentration 10.0 uM
[41] = molecular target: Sigma intracellular receptor 2 (Homo sapiens, UniProt Q5BJF2); conditions: Compound concentration 10.0 uM
[42] = molecular target: Sigma non-opioid intracellular receptor 1 (Homo sapiens) (UniProt Q99720); conditions: Compound concentration 10.0 uM
Chain of Sigma non-opioid intracellular receptor 1 (Homo sapiens) (Q99720 whole entry): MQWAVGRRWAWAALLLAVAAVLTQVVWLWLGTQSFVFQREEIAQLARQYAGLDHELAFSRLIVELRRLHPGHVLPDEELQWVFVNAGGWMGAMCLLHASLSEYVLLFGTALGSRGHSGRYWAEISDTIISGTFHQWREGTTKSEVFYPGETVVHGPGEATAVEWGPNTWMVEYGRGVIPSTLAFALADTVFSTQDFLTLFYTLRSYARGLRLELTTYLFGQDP

T1 sequence (P41145 whole entry): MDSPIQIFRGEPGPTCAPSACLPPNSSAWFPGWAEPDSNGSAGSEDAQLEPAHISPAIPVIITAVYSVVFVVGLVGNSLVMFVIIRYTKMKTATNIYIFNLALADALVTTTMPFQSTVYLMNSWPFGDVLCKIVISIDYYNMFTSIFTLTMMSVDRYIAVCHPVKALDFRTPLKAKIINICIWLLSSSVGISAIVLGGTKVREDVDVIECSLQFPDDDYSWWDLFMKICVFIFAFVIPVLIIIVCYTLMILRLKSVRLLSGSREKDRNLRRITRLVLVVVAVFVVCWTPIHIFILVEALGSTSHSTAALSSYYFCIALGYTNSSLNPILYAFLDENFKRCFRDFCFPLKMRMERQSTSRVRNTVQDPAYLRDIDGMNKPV
Chain of 5-hydroxytryptamine receptor 7 (Homo sapiens) (P34969 whole entry): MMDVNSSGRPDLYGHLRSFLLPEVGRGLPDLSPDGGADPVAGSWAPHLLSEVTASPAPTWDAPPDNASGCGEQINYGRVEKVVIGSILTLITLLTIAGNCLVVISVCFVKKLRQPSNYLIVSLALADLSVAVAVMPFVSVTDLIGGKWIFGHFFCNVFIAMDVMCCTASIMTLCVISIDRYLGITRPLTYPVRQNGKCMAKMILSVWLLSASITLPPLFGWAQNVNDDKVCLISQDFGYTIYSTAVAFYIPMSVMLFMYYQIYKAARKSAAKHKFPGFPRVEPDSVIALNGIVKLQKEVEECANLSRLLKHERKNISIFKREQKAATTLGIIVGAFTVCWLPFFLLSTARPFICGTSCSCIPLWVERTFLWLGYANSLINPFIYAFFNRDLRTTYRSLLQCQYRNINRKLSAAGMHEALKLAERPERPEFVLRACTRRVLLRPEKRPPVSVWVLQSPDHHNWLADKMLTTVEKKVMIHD
Chain of Histamine H4 receptor (Homo sapiens) (Q9H3N8 whole entry): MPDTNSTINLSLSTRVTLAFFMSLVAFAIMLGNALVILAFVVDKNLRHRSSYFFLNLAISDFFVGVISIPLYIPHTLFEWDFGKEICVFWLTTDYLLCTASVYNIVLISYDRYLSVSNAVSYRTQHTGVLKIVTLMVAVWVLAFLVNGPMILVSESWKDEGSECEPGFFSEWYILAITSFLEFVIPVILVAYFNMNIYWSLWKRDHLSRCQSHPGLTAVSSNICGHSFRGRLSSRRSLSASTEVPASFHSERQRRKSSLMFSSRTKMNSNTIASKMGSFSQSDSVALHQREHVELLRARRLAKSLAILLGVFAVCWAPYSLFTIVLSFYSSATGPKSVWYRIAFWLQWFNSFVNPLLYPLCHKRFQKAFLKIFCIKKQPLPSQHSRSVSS
Chain of Alpha-1A adrenergic receptor (Homo sapiens) (P35348 whole entry): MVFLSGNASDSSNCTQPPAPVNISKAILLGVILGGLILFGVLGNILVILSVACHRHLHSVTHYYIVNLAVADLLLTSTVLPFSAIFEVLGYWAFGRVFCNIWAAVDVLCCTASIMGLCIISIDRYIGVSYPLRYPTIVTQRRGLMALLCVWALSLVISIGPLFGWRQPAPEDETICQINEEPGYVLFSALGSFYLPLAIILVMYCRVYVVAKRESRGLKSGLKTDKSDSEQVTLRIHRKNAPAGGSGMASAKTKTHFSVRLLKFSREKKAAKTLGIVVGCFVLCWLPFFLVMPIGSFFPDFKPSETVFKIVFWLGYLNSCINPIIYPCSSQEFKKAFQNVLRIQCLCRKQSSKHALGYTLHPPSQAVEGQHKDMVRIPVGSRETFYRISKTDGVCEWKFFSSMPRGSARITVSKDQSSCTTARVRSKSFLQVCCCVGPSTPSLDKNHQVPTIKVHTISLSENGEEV
Chain of Muscarinic acetylcholine receptor M3 (Homo sapiens) (P20309 whole entry, looked up): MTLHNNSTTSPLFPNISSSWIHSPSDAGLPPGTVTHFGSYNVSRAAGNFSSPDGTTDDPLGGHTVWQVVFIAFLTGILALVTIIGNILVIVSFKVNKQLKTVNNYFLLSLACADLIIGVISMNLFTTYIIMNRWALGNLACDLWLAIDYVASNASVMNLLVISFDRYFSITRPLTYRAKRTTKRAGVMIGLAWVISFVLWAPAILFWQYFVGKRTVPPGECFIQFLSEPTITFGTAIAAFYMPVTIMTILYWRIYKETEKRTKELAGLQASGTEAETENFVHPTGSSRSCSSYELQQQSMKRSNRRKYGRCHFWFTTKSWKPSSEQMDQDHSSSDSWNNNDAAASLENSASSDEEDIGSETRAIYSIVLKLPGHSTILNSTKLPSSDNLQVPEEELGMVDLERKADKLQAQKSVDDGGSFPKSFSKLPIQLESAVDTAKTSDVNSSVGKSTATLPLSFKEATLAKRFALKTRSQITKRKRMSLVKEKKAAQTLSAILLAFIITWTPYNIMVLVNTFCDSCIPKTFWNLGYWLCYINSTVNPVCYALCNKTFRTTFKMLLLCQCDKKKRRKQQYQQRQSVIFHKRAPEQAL
Chain of Beta-1 adrenergic receptor (Homo sapiens) (P08588 whole entry, looked up): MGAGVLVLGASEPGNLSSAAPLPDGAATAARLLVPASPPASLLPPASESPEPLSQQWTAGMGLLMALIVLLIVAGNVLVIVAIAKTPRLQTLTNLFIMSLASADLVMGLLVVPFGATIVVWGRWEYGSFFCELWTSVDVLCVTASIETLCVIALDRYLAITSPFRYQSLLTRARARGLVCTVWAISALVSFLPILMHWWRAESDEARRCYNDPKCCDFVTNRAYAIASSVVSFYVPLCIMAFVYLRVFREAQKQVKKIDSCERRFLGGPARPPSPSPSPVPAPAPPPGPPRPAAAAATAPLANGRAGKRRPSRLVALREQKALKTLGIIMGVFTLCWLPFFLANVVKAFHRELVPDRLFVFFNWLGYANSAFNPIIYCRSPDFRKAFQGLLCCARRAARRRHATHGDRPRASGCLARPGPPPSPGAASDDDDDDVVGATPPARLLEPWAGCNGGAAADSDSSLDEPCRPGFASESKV
Chain of Sigma intracellular receptor 2 (Q5BJF2 whole entry): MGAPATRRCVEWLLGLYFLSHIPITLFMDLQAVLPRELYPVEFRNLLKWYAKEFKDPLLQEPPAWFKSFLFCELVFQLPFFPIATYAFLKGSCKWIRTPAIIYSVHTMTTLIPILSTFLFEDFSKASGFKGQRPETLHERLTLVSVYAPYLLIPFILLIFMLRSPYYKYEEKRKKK
Chain of Histamine H3 receptor (Homo sapiens) (Q9Y5N1 whole entry): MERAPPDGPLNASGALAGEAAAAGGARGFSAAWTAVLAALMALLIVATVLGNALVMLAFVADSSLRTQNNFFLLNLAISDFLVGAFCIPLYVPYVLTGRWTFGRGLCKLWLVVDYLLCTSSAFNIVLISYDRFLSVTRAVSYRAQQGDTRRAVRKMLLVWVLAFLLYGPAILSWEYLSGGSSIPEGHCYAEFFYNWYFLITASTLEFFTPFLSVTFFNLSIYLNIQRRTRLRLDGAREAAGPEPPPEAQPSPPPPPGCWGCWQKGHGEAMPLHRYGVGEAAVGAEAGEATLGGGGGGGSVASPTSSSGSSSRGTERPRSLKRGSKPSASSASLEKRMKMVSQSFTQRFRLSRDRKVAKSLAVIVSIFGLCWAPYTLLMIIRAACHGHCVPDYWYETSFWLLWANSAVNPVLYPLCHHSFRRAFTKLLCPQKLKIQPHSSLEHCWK
Chain of Muscarinic acetylcholine receptor M5 (Homo sapiens) (P08912 whole entry): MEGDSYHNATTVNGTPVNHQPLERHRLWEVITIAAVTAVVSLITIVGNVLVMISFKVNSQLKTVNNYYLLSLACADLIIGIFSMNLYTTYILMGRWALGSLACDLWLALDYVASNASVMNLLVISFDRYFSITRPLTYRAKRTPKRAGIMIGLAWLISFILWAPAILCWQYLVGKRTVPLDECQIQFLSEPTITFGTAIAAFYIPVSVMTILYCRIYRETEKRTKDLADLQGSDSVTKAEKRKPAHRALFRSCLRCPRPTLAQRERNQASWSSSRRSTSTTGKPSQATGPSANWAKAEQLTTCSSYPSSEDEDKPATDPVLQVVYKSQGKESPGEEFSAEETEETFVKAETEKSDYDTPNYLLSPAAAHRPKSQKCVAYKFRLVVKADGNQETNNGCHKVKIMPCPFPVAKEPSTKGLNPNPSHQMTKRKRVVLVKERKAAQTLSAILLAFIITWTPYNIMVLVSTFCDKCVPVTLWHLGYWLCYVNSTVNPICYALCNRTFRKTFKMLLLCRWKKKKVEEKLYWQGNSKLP
Chain of Peroxisomal N(1)-acetyl-spermine/spermidine oxidase (Q6QHF9 whole entry): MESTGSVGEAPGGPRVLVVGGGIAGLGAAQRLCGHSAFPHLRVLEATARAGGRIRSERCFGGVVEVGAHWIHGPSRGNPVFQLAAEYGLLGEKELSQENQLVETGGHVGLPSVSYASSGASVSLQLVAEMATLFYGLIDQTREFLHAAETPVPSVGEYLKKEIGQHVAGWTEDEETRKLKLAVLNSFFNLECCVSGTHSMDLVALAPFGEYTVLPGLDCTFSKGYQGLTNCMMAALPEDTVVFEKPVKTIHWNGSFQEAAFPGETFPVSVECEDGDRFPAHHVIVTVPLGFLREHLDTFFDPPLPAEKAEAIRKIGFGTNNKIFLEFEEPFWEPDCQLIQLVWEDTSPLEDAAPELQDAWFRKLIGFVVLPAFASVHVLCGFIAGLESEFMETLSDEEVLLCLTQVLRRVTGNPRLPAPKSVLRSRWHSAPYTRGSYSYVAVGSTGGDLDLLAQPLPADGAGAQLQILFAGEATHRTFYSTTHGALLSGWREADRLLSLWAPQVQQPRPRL

CC(=O)Nc1ccc(-c2cc(-c3ccccc3)nc3cc(C(=O)NCCCn4ccnc4)nn23)cc1
198 nM: Ki [1]
6.51: pKi [2]
2100 nM (not active): IC50 [3]
active: inhibition [14] 90% | inhibition [15] 89.3% | inhibition [19] 79.9% | inhibition [22] 90.7% | inhibition [28] 75.3% | inhibition [36] 51.6% | inhibition [39] 96.6%
inactive: inhibition [4] 16.5% | inhibition [5] 38.4% | inhibition [6] 17.8% | inhibition [7] 17.5% | inhibition [8] 7.86% | inhibition [9] 16.2% | inhibition [10] 6.76% | inhibition [11] 0.12% | inhibition [12] 22.7% | inhibition [13] 32.2% | inhibition [16] 15% | inhibition [17] 12.9% | inhibition [18] 49.4% | inhibition [20] 25.4% | inhibition [21] 49.3% | inhibition [23] 14.9% | inhibition [24] 10.8% | inhibition [25] 6.04% | inhibition [26] 27.9% | inhibition [27] -7.41% | inhibition [29] 28.1% | inhibition [30] 10.8% | inhibition [31] -1.48% | inhibition [32] 4.27% | inhibition [33] -7.96% | inhibition [34] 46.1% | inhibition [35] 33.5% | inhibition [37] 30.3% | inhibition [38] -5.81% | inhibition [40] 39.3% | inhibition [41] 25.4% | inhibition [42] 21.2%
306 nM: Ki [2]

O=C(NCCCn1ccnc1)c1cc2nc(-c3ccccc3)cc(-c3ccccc3)n2n1
790 nM (not active): IC50 [3]
6.3: pKi [2]
inactive: inhibition [4] 13.1% | inhibition [6] 27.4% | inhibition [8] 28.4% | inhibition [9] 25.6% | inhibition [10] 17.5% | inhibition [11] 8.26% | inhibition [12] 28.9% | inhibition [13] 25.3% | inhibition [14] 40.5% | inhibition [15] 20.9% | inhibition [16] 20.4% | inhibition [17] 16.6% | inhibition [18] 46% | inhibition [19] 47.7% | inhibition [20] 24.8% | inhibition [21] 17.1% | inhibition [23] 4.87% | inhibition [24] 26.9% | inhibition [25] -7.55% | inhibition [26] 32.6% | inhibition [27] 3.52% | inhibition [28] 10.2% | inhibition [30] 42.2% | inhibition [31] 20.1% | inhibition [32] 2.96% | inhibition [33] -4.5% | inhibition [34] 24.3% | inhibition [35] 32% | inhibition [36] 36.6% | inhibition [37] 37.9% | inhibition [38] -7.92% | inhibition [40] 28.1% | inhibition [42] 30.5%
498 nM: Ki [2]
1170 nM: Ki [1]
active: inhibition [5] 104% | inhibition [7] 57.9% | inhibition [22] 73.3% | inhibition [29] 64% | inhibition [39] 114% | inhibition [41] 76.7%
